Measurements reported in US11845760B2, “PRMT5 inhibitors” (AMGEN INC., priority 2020, dated 2023).
Read-outs that look alike come from different tables or passages of the source.

Tests used:
HCT116 MTAP null cells = experiment: HCT116 MTAP null cell line proliferation (CellTiter-Glo cell viability, 6 days); assay type: cell-based; conditions: HCT116 MTAP null cells, 6 days of treatment, CellTiter-Glo cell viability, read-out: HCT-116 MTAP null IC50
Method in brief: (§1)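 Isogenic HCT116 pair (both MTAP alleles knocked out vs parent) in RPMI 1640 + 10% FBS, seeded overnight at 37° C, 5% CO2, then exposed 6 days to 8- or 9-point 1:3 dilutions from 1 or 10 μM. CellTiter-Glo luminescence; IC50 from sigmoidal fit, Hill slope fixed −1, top 100%, or 4-parameter logistic.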

HCT116 WT cells = experiment: HCT116 WT cell line proliferation (CellTiter-Glo cell viability, 6 days); assay type: cell-based; conditions: HCT116 WT (parent) cells, 6 days of treatment, CellTiter-Glo cell viability, read-out: HCT-116 WT IC50
Method in brief: as §1

Structure (SMILES)	IC50 (HCT116 MTAP null cells; HCT116-MTAP null, 144 h)	IC50 (HCT116 WT cells; Homo sapiens, HCT-116, 144 h)	IC50 (HCT116 MTAP null cells)	IC50 (HCT116 WT cells)
C[C@H]1OCc2c1c(N)nc1ccc(C(=O)N3CC[C@](O)(c4ccc(C(F)(F)F)cc4)C3)cc21 [Example 435, ((3R)-4-amino-3-methyl-1,3-dihydrofuro[3,4-c]quinolin-8-yl)((3S)-3-hydroxy-3-(4-(trifluoromethyl)phenyl)-1-pyrrolidinyl)methanone]	251 nM	3760 nM		
Cc1ccc([C@@H]2CN(C(=O)c3cc4c5c(c(N)nc4cc3F)COC5)CC2(C)C)cc1 (single isomer, unassigned) [Example 464]	195 nM	5470 nM		
Cc1ccc([C@H]2COCCN2C(=O)c2cc3c4c(c(N)nc3cn2)COC4)cn1 (single isomer, unassigned) [Example 607]	> 1000 nM	> 10000 nM		
CC[C@@H]1CN(C(=O)c2ccc3nc(N)c4c(c3c2)CO[C@@H]4C)C[C@H]1c1ccc(C)cc1 (single isomer, unassigned) [Example 461]	864 nM	14600 nM		
Nc1nc2ccc(C(=O)N3CCOC[C@H]3c3ccc(OC(F)(F)F)nc3)cc2c2c1COC2 (single isomer, unassigned) [Example 591]	6160 nM	> 10000 nM		
Nc1nc2ccc(C(=O)N3CCOCC3c3ccc(F)cc3)cc2c2c1COC2 (racemic) [Example 363, (4-amino-1,3-dihydrofuro[3,4-c]quinolin-8-yl)-[rac-(3S)-3-(4-fluorophenyl)morpholin-4-yl]methanone]	1910 nM	> 10000 nM		
C[C@@H]1OCc2c1c(N)nc1ccc(C(=O)N3CCOC[C@@H]3c3ccc(OC(F)(F)F)cc3)cc21 (single isomer, unassigned) [Example 569]	> 1000 nM	> 10000 nM		
C[C@H]1OCc2c1c(N)nc1ccc(C(=O)N3C[C@@H](c4ccc(F)cc4)C(C)(C)C3)cc21 (single isomer, unassigned) [Example 462]	595 nM	14100 nM		
Nc1nc2ccc(C(=O)N3CCOC[C@@H]3c3ccc(C(F)(F)F)nc3)cc2c2c1COC2 (single isomer, unassigned) [Example 609]	207 nM	9110 nM		
Nc1nc2cnc(C(=O)N3CCC(F)(F)C[C@H]3c3ccc(OC(F)(F)F)cc3)cc2c2c1COC2 (single isomer, unassigned) [Example 601]	> 10000 nM	> 10000 nM		
Nc1nc2cc(F)c(C(=O)N3CC(c4ccc(C(F)(F)F)cn4)C3)cc2c2c1COC2 [Example 423, (4-amino-7-fluoro-1,3-dihydrofuro[3,4-c]quinolin-8-yl)(3-(5-(trifluoromethyl)-2-pyridinyl)-1-azetidinyl)methanone]	653 nM	33300 nM		
Nc1nc2ccc(C(=O)N3CCOC[C@H]3c3ccc(C(F)(F)F)cc3)cc2c2ccsc12 (single isomer, unassigned) [Example 487]	> 1000 nM	> 10000 nM		
Nc1nc2cnc(C(=O)N3CCOC[C@@H]3c3cc(Cl)c(Cl)s3)cc2c2c1COC2 (single isomer, unassigned) [Example 618]	300 nM	> 10000 nM		
C[C@H]1COC[C@@H](c2ccc(C(F)(F)F)nc2)N1C(=O)c1ccc2nc(N)c3c(c2c1)COC3 (racemic) [Example 303, (4-amino-1,3-dihydrofuro[3,4-c]quinolin-8-yl)((3R,5S)-3-methyl-5-(6-(trifluoromethyl)-3-pyridinyl)-4-morpholinyl)methanone and (4-amino-1,3-dihydrofuro[3,4-c]quinolin-8-yl)((3S,5R)-3-methyl-5-(6-(trifluoromethyl)-3-pyridinyl)-4-morpholinyl)methanone]	134 nM	2860 nM		
Nc1nc2ccc(C(=O)N3CCOCC3c3ccccc3)cc2c2c1COC2 (racemic) [Example 493, (4-amino-1,3-dihydrofuro[3,4-c]quinolin-8-yl)-[rac-(3S)-3-phenylmorpholin-4-yl]methanone]	> 1000 nM	> 10000 nM		
C[C@@H]1COC[C@H](c2ccc(C(F)(F)F)cc2F)N1C(=O)c1ccc2nc(N)c3c(c2c1)COC3 (racemic) [Example 333, (4-amino-1,3-dihydrofuro[3,4-c]quinolin-8-yl)((3R,5S)-3-(2-fluoro-4-(trifluoromethyl)phenyl)-5-methyl-4-morpholinyl)methanone and (4-amino-1,3-dihydrofuro[3,4-c]quinolin-8-yl)((3S,5R)-3-(2-fluoro-4-(trifluoromethyl)phenyl)-5-methyl-4-morpholinyl)methanone]			58 nM	1440 nM
Cc1ccc(C2COCCN2C(=O)c2ccc3nc(N)c4c(c3c2)COC4)cn1 (racemic) [Example 512, (4-amino-1,3-dihydrofuro[3,4-c]quinolin-8-yl)-[rac-(3R)-3-(6-methyl-3-pyridyl)morpholin-4-yl]methanone]	> 1000 nM	> 10000 nM		

The remaining compounds from weak to strong by IC50 (HCT116 MTAP null cells; HCT116-MTAP null, 144 h), led by results:

IC50 (HCT116 MTAP null cells; HCT116-MTAP null, 144 h)	IC50 (HCT116 WT cells; Homo sapiens, HCT-116, 144 h)	IC50 (HCT116 MTAP null cells)	IC50 (HCT116 WT cells)	Structure (SMILES)
68 nM	1560 nM			Nc1nc2cc(Cl)c(C(=O)N3C[C@@H](c4ccc(F)cc4)[C@H](c4cc[nH]n4)C3)cc2c2c1COC2 (single isomer, unassigned) [Example 476]
52 nM	1610 nM			C[C@H]1COC[C@@H](c2ccc(C#N)cc2)N1C(=O)c1cc2c3c(c(N)nc2cn1)COC3 (racemic) [Example 389, 4-((3R,5S)-4-((4-amino-1,3-dihydrofuro[3,4-c][1,7]naphthyridin-8-yl)carbonyl)-5-methyl-3-morpholinyl)benzonitrile and 4-((3S,5R)-4-((4-amino-1,3-dihydrofuro[3,4-c][1,7]naphthyridin-8-yl)carbonyl)-5-methyl-3-morpholinyl)benzonitrile]
50 nM	1520 nM			C[C@H]1OCc2c1c(N)nc1ccc(C(=O)N3[C@@H](C)COC[C@H]3c3ccc(OC(F)(F)F)cc3F)cc21 (racemic) [Example 329, ((3R)-4-amino-3-methyl-1,3-dihydrofuro[3,4-c]quinolin-8-yl)((3R,5S)-3-(2-fluoro-4-(trifluoromethoxy)phenyl)-5-methyl-4-morpholinyl)methanone and ((3R)-4-amino-3-methyl-1,3-dihydrofuro[3,4-c]quinolin-8-yl)((3S,5R)-3-(2-fluoro-4-(trifluoromethoxy)phenyl)-5-methyl-4-morpholinyl)methanone]
39 nM	3580 nM			Cn1ncc2c(N)nc3cc(F)c(C(=O)N4CCOC[C@@H]4c4ccc(OC(F)F)nn4)cc3c21 [Example 556, (4-amino-7-fluoro-1-methyl-1H-pyrazolo[4,3-c]quinolin-8-yl)((3S)-3-(6-(difluoromethoxy)-3-pyridazinyl)-4-morpholinyl)methanone]
28 nM	1100 nM			C[C@@H]1COC[C@H](c2ccc(OC(F)F)nn2)N1C(=O)c1cc2c3c(c(N)nc2cn1)COC3 [Example 554, (4-amino-1,3-dihydrofuro[3,4-c][1,7]naphthyridin-8-yl)((3S,5R)-3-(6-(difluoromethoxy)-3-pyridazinyl)-5-methyl-4-morpholinyl)methanone]
27 nM	1270 nM			COc1ccc([C@H]2COC[C@@H](C)N2C(=O)c2cc3c(cc2F)nc(N)c2c3cnn2C)nn1 [Example 539, (4-amino-7-fluoro-3-methyl-3H-pyrazolo[3,4-c]quinolin-8-yl)((3S,5R)-3-(6-methoxy-3-pyridazinyl)-5-methyl-4-morpholinyl)methanone]
22 nM	765 nM			C[C@@H]1COC[C@H](c2ccc(OC(F)(F)F)cn2)N1C(=O)c1cc2c3c(c(N)nc2cn1)COC3 (racemic) [Example 359, (4-amino-1,3-dihydrofuro[3,4-c][1,7]naphthyridin-8-yl)((3R,5S)-3-methyl-5-(5-(trifluoromethoxy)-2-pyridinyl)-4-morpholinyl)methanone and (4-amino-1,3-dihydrofuro[3,4-c][1,7]naphthyridin-8-yl)((3S,5R)-3-methyl-5-(5-(trifluoromethoxy)-2-pyridinyl)-4-morpholinyl)methanone]
19 nM	400 nM			C[C@@H]1COC[C@H](c2ccc(OC(F)(F)F)cc2)N1C(=O)c1cc2c(cc1F)nc(N)c1c2cnn1C [Example 532, (4-amino-7-fluoro-3-methyl-3H-pyrazolo[3,4-c]quinolin-8-yl)((3R,5S)-3-methyl-5-(4-(trifluoromethoxy)phenyl)-4-morpholinyl)methanone]
18 nM	120 nM			C[C@@H]1COC[C@H](c2ccc(C(F)(F)F)cn2)N1C(=O)c1cc2c(cn1)nc(N)c1cnn(C)c12 [Example 520, (4-amino-1-methyl-1H-pyrazolo[4,3-c][1,7]naphthyridin-8-yl)((3R,5S)-3-methyl-5-(5-(trifluoromethyl)-2-pyridinyl)-4-morpholinyl)methanone]
13 nM	602 nM			Cn1ncc2c(N)nc3ccc(C(=O)N4CCOC[C@@H]4c4ccc(S(F)(F)(F)(F)F)cc4)cc3c21 [Example 447, (4-amino-1-methyl-1H-pyrazolo [4,3-c]quinolin-8-yl)((3S)-3-(4-(pentafluoro-lambda~6~-sulfanyl)phenyl)-4-morpholinyl)methanone]
10 nM	243 nM			Nc1nc2cc(Cl)c(C(=O)N3CCOC[C@@H]3c3ccc(S(F)(F)(F)(F)F)cc3)cc2c2c1COC2 [Example 418, (4-amino-7-chloro-1,3-dihydrofuro[3,4-c]quinolin-8-yl)((3S)-3-(4-(pentafluoro-lambda~6~-sulfanyl)phenyl)-4-morpholinyl)methanone]
